# According to patent US12337000B2, “Therapeutic modulators of the reverse mode of ATP synthase” (priority 2017, dated 2025):
# “Also recorded” adds a separate entry of the source. Where a name gives a salt, the structure may show the parent alone. Read-outs that look alike come from different tables or passages of the source.
# Columns and labels:
# F1F0 ATP hydrolase = target: T1, F1F0 ATP hydrolase (Bos taurus, UniProt P00829+P19483); settings: cited from earlier work
# T1 construct: from tissue; host or cells: sub-mitochondrial particles (SMPs)
# [1] = cited from earlier work
# [2] = system: 59 cancer cell lines (NCI-60); test: NCI-60 one-dose in vitro assay; type: cell-based, human
# Excerpt: FIGS. 1, 2, 3, 4, 5, 6, 7, 8 show results from the NCI-60 one-dose in vitro assay at the Developmental Therapeutics Program (DTP), at the National Cancer Institute (NCI, Bethesda, MD, USA). Its protocol is well known to those of the art, and it tests the effect, if any, of a test compound on the growth/survivability of a cancer cell line as compared to the no compound control. […] However, a constant is that there is always representative cell lines from leukemia, melanoma and cancers of the lung, colon, brain, ovary, breast, prostate and kidney. In a one-dose NCI compound test report, NCI report a number for each cell line, which they call “Growth Percent”, which is its growth relative to the no-compound control, and relative to the time zero number of cells. This reported parameter allows detection of both growth inhibition (values between 0 and 100) and lethality (values less than 0). For example, an NCI “Growth Percent” value of 100 means no growth inhibition. Value of 40 means 60% growth inhibition. Value of 0 means no net growth over the course of the experiment. Value of −40 means 60% lethality. Value of −100 means all cells are dead. I don't present NCI one-dose data in this original format. Instead, if the NCI “Growth Percent” value for a cell is positive, it is manipulated: [100 minus this original NCI-60 “Growth Percent” data point], to yield the percentage “Growth Inhibition”. If the original NCI “Growth Percent” value for a cell is negative, it is made positive to be the percentage of original cancer cells (at time zero) killed: “Percentage Killed” {and in these cases, of course, all growth has been inhibited, so percentage “Growth Inhibition” is then specified to be 100% for this cancer cell line}. In my one-dose figures, “Growth Inhibition” (0-100%) is presented on the x-axis and, if applicable, “Percentage Killed” (0-100%) further along on the x-axis. The latter is applicable when there is not just cancer growth inhibition but a reduction in the number of cancer cells from the start time i.e. when the compound is not merely slowing cancer growth, but is actively reducing the number of cancer cells from the starting number. In cases where there is only growth inhibition, only “Growth inhibition” is presented on the x-axis.
# NCI-60 tests are performed at a controlled temperature of 37° C..
# To perform the anti-cancer testing reported: BMS-199264 hydrochloride was purchased from Sigma-Aldrich. BTB06584 was purchased from AdooQ Bioscience, Irvine, CA, USA. Compounds 19a (separated into 6a and 6b stereoisomers) and 31 were synthesized by reaction schemes disclosed herein. Almitrine dimesylate was purchased from Ak Scientific, Palo Alto, CA, USA.
# [3] = cited from earlier work; remark: listed apart in the source
# F1F0-ATP hydrolysis = target: T2, F1F0-ATP hydrolysis (Homo sapiens, UniProt P06576+P25705); settings: cited from earlier work
# T2 construct: BTB06584 potency information (is not an EC50) is from a whole cell study [13]; endogenous in cells
# [4] = from [8], Formula (II), read-out: EC50 F1F0 ATP hydrolase
SMILES,EC50 (F1F0 ATP hydrolase; [4]) [nM],also measured
"Cc1nc[nH]c1CN1c2ccccc2CN(Cc2ccc(C(C)(C)C)cc2)CC1CCc1ccccc1 (centres unmarked) [4-t-Bu—Ph, CH2,4-Me-5-yl]",2350,
"O=S(=O)(c1cccc2ccccc12)N1Cc2ccccc2N(Cc2cnc[nH]2)C(CCc2ccccc2)C1 (centres unmarked) [Naphth-1-y1, SO2,5-yl]",338,
"N#Cc1ccc(S(=O)(=O)N2Cc3ccccc3N(Cc3c[nH]cn3)C(CCc3ccccc3)C2)c(Cl)c1 (centres unmarked) [2-Cl-4-CN—Ph, SO2,5-yl]",939,
"CC(C)(C)c1ccc(S(=O)(=O)N2Cc3ccccc3N(Cc3ncc[nH]3)C(CCc3ccccc3)C2)cc1 (centres unmarked) [4-t-Bu—Ph, SO2,2-yl]",> 10000,
"O=S(=O)(Cc1ccccc1)N1Cc2ccccc2N(Cc2c[nH]cn2)C(CCc2ccccc2)C1 (centres unmarked) [Bn, SO2,5-yl]",2410,
CN(C)CCCN1c2ccccc2CCc2ccc(Cl)cc21 [clomipramine HCl],,"LD50 {mouse, IV} ([1]; mouse, in vivo, iv): 22 mg/kg"
"O=S(=O)(N1Cc2ccccc2N(Cc2c[nH]cn2)C(CCc2ccccc2)C1)C(F)(F)F (centres unmarked) [CF3, SO2,5-yl]",77,
"O=S(=O)(c1cccc2cccnc12)N1Cc2ccccc2N(Cc2c[nH]cn2)C(CCc2ccccc2)C1 (centres unmarked) [Quinolin-8-yl, SO2,5-yl]",2930,
"CC(C)(C)c1ccc(CN2Cc3ccccc3N(Cc3cnc[nH]3)C(CCc3ccccc3)C2)cc1 (centres unmarked) [4-t-Bu—Ph, CH2,5-yl]",2140,
CC1(C)Oc2ccc(S(=O)(=O)N3CCCCC3)cc2[C@@H](N(Cc2ncc[nH]2)c2ccc(Cl)cc2)[C@@H]1O.Cl [BMS-199264 hydrochloride],,anti-cancer activity (in words) ([2]; 10 μM): Anti-cancer activity; anti-cancer activity (in words) ([2]; 100 μM): Anti-cancer activity
"O=S(=O)(c1cccc2nonc12)N1Cc2ccccc2N(Cc2cnc[nH]2)C(CCc2ccccc2)C1 (centres unmarked) [Benzofurazan-7-yl, SO2,5-yl]",1780,
"O=[N+]([O-])c1cccc(S(=O)(=O)N2Cc3ccccc3N(Cc3cnc[nH]3)C(CCc3ccccc3)C2)c1 (centres unmarked) [3-NO2—Ph, SO2,5-yl]",423,
"N#CN=C(Nc1ccccc1Cl)NC(Cn1ccnc1)c1ccc(Cl)cc1Cl (centres unmarked) [2-Cl, CN]",,"EC50 (F1F0 ATP hydrolase; Further Examples [5], Formula (I), read-out: EC50 F1F0 ATP hydrolase): 2230 nM"
"O=S(=O)(c1cccs1)N1Cc2ccccc2N(Cc2cnc[nH]2)C(CCc2ccccc2)C1 (centres unmarked) [Thiophen-2-yl, SO2,5-yl]",636,
CC[C@H]1/C=C/C=C/C[C@@H](C)[C@H](O)[C@@](C)(O)C(=O)[C@@H](C)[C@H](O)[C@@H](C)C(=O)[C@@H](C)[C@H](O)[C@@H](C)/C=C/C(=O)O[C@@H]2[C@H](C)[C@H](CC1)O[C@]1(CC[C@H](C)[C@H](C[C@@H](C)O)O1)[C@H]2C [oligomycin],,"time within which healthy rats are killed ([3]; 1 mg/kg intraperitoneal, n=10 [15]): ≤ 48 h; LD33 ([3]; healthy rats, intraperitoneal injection [15]): 0.5 mg/kg"
"Cc1nc[nH]c1CN1c2ccccc2CN(S(=O)(=O)c2ccc(F)cc2)CC1CCc1ccccc1 (centres unmarked) [4-F—Ph, SO2,4-Me-5-yl]",151,
"CC(C)(C)c1ccc(S(=O)(=O)N2Cc3ccccc3N(Cc3c[nH]cn3)C(CCc3ccccc3)C2)cc1 (centres unmarked) [4-t-Bu—Ph, SO2,5-yl]",8,
"Cc1nc(CN2c3ccccc3CN(S(=O)(=O)c3ccc(F)cc3)CC2CCc2ccccc2)c[nH]1 (centres unmarked) [4-F—Ph, SO2,2-Me-5-yl]",9620,
"O=S(=O)(c1ccccc1)N1Cc2ccccc2N(Cc2cnc[nH]2)C(CCc2ccccc2)C1 (centres unmarked) [Ph, SO2,5-yl]",282,
O=C(Oc1cc(S(=O)(=O)c2ccccc2)ccc1[N+](=O)O)c1ccc(Cl)cc1 [BTB06584],,"anti-cancer activity (in words) ([2]; 10 μM): none and No anti-cancer activity; anti-cancer activity (in words) ([2]; 100 μM): observed; also recorded: Anti-cancer activity; inhibitory potency for F1F0-ATP hydrolysis (in words) (F1F0-ATP hydrolysis; 10 μM [13]): none; concentration required to inhibit F1F0-ATP hydrolysis (F1F0-ATP hydrolysis; whole cell study [13], not an EC50): > 100 µM"
"O=S(=O)(c1ccc(O)cc1)N1Cc2ccccc2N(Cc2cnc[nH]2)C(CCc2ccccc2)C1 (centres unmarked) [4-OH—Ph, SO2,5-yl]",667,
"COc1ccc(S(=O)(=O)N2Cc3ccccc3N(Cc3c[nH]cn3)C(CCc3ccccc3)C2)cc1 (centres unmarked) [4-OMe—Ph, SO2,5-yl]",77,
N.N.O=C([O-])C1(C(=O)[O-])CCC1.[Pt+2] [carboplatin],,"LD50 ([1]; mice, intraperitoneal injection (IP)): 118 mg/kg"
"O=S(=O)(c1cc(Cl)ccc1Cl)N1Cc2ccccc2N(Cc2cnc[nH]2)C(CCc2ccccc2)C1 (centres unmarked) [2,5-di-Cl—Ph, SO2,5-yl]",158,
"N#Cc1ccc(S(=O)(=O)N2Cc3ccccc3N(Cc3cnc[nH]3)C(CCc3ccccc3)C2)cc1 (centres unmarked) [4-CN—Ph, SO2,5-yl]",255,
"O=S(=O)(c1ccc(F)cc1)N1Cc2ccccc2N(Cc2c[nH]cn2)C(CCc2ccccc2)C1 (centres unmarked) [4-F—Ph, SO2,5-yl]",221,
N#Cc1cccc(C(=O)/N=C(\Nc2ccc(Cl)cc2)NC(Cn2ccnc2)c2ccc(Cl)cc2Cl)c1 (centres unmarked) [Compound 19a],,"EC50 (F1F0 ATP hydrolase; SMP studies in [5-8], read-out: EC50 F1F0 ATP hydrolysis / hydrolase): 33 nM"
